Experiments:
[1] = system: 6 Hz (32 mA) psychomotor seizures; assay: 6 Hz psychomotor seizure test, 32 mA (incl. TPE determination); format: in vivo, mice; settings: for # protected/# tested: 0.5 h
Experimental: Test compounds were administered using an optimal fluid volume to body fluid ratio. Test compounds were administered to mice in a volume of 0.01 mL/g of body weight (White H. S., et al., General Principles: Experimental selection, quantification, and evaluation of antiepileptic drugs, in Antiepileptic Drugs, Fourth Edition, […], and B. S. Meldrum, Editors. 1995, Raven Press, Ltd.: New York, pp. 99-110). For subcutaneous (s.c.) administration, the test compounds were administered into a loose fold of skin along the back of the animal except compound 6-b, which was administered orally (p.o). […] The animals were maintained on an adequate diet (Prolab RMH 3000) and allowed free access to food and water, except during the short time they were removed from their cage for testing. Animals newly received in the laboratory were allowed sufficient time to correct for possible food and water restriction incurred during transit before being employed in testing. All mice were housed in plastic cages in specially constructed rooms with controlled humidity, exchange of air and controlled lighting (12 hours on-12 hours off). The animals were housed, fed, and handled in a manner consistent with the recommendations in the National Council Publication, “Guide for the Care and Use of Laboratory Animals”. In the determination of an ED50 or TD50 for each test compound, the first dose administered is usually the same dose as that used in a successful TPE determination. […] Third and fourth doses were selected to produce an evenly spaced dose response line. […] TPE was determined using the 6 Hz (32 mA) assay. […] The 6 Hz seizure test is used as a model of pharmacoresistant limbic seizures. […] Focal seizures were induced in mice via corneal stimulation (6 Hz, 0.2 msec rectangular pulse, 3 sec duration; Barton et al. 2001). Mice were tested at either 32 mA or 44 mA. […] The seizures that arise from corneal stimulation in this assay are characterized by a minimal clonic phase followed by stereotyped automatistic behaviors including stun, forelimb clonus, twitching of the vibrissae, and Straub-tail. Animals not displaying these behaviors were considered protected.

[2] = system: 6 Hz (44 mA) psychomotor seizures; assay: 6 Hz psychomotor seizure test, 44 mA (alone, combination with LEV, isobolographic study); format: in vivo, mice
Experimental: Test compounds were administered using an optimal fluid volume to body fluid ratio. Test compounds were administered to mice in a volume of 0.01 mL/g of body weight (White H. S., et al., General Principles: Experimental selection, quantification, and evaluation of antiepileptic drugs, in Antiepileptic Drugs, Fourth Edition, […], and B. S. Meldrum, Editors. 1995, Raven Press, Ltd.: New York, pp. 99-110). For subcutaneous (s.c.) administration, the test compounds were administered into a loose fold of skin along the back of the animal except compound 6-b, which was administered orally (p.o). […] The animals were maintained on an adequate diet (Prolab RMH 3000) and allowed free access to food and water, except during the short time they were removed from their cage for testing. Animals newly received in the laboratory were allowed sufficient time to correct for possible food and water restriction incurred during transit before being employed in testing. All mice were housed in plastic cages in specially constructed rooms with controlled humidity, exchange of air and controlled lighting (12 hours on-12 hours off). The animals were housed, fed, and handled in a manner consistent with the recommendations in the National Council Publication, “Guide for the Care and Use of Laboratory Animals”. In the determination of an ED50 or TD50 for each test compound, the first dose administered is usually the same dose as that used in a successful TPE determination. […] Third and fourth doses were selected to produce an evenly spaced dose response line. […] The 6 Hz seizure test is used as a model of pharmacoresistant limbic seizures. […] Focal seizures were induced in mice via corneal stimulation (6 Hz, 0.2 msec rectangular pulse, 3 sec duration; Barton et al. 2001). Mice were tested at either 32 mA or 44 mA. […] The seizures that arise from corneal stimulation in this assay are characterized by a minimal clonic phase followed by stereotyped automatistic behaviors including stun, forelimb clonus, twitching of the vibrissae, and Straub-tail. Animals not displaying these behaviors were considered protected. […] In addition to recording the efficacy and toxicity data for these compounds alone or in combination, both plasma and brain samples were collected from each of the groups for pharmacokinetic/pharmacokinetic analysis. No pharmacokinetic interaction was observed based on compound levels in the plasma and brain samples (data not shown). Isobolographic studies were conducted for the combined administration of Co. […] Studies were conducted according to previously described methods (Madsen et al. 2011). Initial ED50 values were determined for both Co. […] Co. […] Doses used were proportional to calculated ED50 values. […] Experimental treatment doses (see Table 4) were based on theoretical values and adjusted according to observed effects. Experimentally determined ED50 (+SEM) values for each fixed dose-ratio combination were compared to the theoretical values (t-test) for statistical purposes. […] Subsequently, the experimental combined doses were determined for the same paradigms in the 6 Hz seizure test (Table 4 below).

corneal kindled seizures = assay: Mouse corneal kindling model; format: in vivo, mice; settings: 100 mg/kg s.c.; Racine score 0-5
Experimental: After the mice reached a stable kindled state, the test compound or vehicle was administered and, at the previously determined TPE, each animal was given the electrical stimulus indicated above. […] One dose of LEV and two doses of Co.

[3] = Minimal motor impairment (rotarod); format: in vivo, mice; settings: for # rotarod motor impairment/# tested: 0.5 h
Experimental: Acute MMI was assessed by a combination of direct observations of the animal for overt symptoms of the animal's neurological or muscular function. In mice, the rotarod procedure was used to disclose minimal muscular or neurological impairment. When a mouse is placed on a rod that rotates at a speed of 6 rpm, the animal can maintain its equilibrium for long periods of time. The animal was considered toxic if it fell off this rotating rod three times during a 1 min period.
In the determination of an ED50 or TD50 for each test compound, the first dose administered is usually the same dose as that used in a successful TPE determination.
If the initial dose employed was effective or toxic in more than 50% of animals, the next dose would be one-half that of the initial dose; if the initial dose was effective or toxic in less than 50% of animals, the following dose would be twice that of the initial dose. Third and fourth doses were selected to produce an evenly spaced dose response line. There should be a minimum of 4 points either including or lying between 0 and 100%.

mGlu1a = mGlu1a (Homo sapiens, UniProt Q13255); settings: cited from earlier work
mGlu5a = mGlu5a (Homo sapiens, UniProt P41594); settings: cited from earlier work
mGlu5a, sequence (P41594 21-1180 isoform P41594-2): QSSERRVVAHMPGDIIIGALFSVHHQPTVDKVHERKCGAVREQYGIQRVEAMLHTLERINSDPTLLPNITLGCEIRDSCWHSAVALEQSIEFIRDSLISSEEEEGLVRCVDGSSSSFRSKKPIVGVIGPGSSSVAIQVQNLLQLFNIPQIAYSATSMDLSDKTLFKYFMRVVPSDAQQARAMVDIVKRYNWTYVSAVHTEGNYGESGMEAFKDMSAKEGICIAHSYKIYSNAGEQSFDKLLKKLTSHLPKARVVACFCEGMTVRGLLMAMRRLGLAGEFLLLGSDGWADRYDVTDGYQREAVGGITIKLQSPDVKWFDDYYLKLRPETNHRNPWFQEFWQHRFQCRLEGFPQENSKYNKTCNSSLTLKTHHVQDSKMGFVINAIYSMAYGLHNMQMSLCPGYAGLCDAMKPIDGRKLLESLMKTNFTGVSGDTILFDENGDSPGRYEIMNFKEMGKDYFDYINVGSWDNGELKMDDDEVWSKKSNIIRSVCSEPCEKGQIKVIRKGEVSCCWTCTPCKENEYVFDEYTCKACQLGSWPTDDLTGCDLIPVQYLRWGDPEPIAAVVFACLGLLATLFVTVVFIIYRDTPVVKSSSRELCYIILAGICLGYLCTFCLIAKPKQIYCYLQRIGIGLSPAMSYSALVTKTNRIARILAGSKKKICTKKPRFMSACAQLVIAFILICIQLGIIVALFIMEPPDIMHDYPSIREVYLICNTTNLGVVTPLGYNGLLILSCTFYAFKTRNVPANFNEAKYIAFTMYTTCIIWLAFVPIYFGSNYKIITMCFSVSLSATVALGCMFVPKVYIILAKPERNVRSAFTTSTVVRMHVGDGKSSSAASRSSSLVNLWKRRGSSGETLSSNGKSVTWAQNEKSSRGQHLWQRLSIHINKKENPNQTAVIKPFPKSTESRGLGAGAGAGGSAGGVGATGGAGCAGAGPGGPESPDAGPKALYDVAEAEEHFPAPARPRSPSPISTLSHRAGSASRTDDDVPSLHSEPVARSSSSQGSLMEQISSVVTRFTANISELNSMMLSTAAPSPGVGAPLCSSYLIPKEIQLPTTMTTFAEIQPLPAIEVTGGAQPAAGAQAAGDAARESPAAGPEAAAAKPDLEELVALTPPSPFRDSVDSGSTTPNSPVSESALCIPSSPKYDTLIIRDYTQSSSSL

mGlu1a, sequence (Q13255 19-1194): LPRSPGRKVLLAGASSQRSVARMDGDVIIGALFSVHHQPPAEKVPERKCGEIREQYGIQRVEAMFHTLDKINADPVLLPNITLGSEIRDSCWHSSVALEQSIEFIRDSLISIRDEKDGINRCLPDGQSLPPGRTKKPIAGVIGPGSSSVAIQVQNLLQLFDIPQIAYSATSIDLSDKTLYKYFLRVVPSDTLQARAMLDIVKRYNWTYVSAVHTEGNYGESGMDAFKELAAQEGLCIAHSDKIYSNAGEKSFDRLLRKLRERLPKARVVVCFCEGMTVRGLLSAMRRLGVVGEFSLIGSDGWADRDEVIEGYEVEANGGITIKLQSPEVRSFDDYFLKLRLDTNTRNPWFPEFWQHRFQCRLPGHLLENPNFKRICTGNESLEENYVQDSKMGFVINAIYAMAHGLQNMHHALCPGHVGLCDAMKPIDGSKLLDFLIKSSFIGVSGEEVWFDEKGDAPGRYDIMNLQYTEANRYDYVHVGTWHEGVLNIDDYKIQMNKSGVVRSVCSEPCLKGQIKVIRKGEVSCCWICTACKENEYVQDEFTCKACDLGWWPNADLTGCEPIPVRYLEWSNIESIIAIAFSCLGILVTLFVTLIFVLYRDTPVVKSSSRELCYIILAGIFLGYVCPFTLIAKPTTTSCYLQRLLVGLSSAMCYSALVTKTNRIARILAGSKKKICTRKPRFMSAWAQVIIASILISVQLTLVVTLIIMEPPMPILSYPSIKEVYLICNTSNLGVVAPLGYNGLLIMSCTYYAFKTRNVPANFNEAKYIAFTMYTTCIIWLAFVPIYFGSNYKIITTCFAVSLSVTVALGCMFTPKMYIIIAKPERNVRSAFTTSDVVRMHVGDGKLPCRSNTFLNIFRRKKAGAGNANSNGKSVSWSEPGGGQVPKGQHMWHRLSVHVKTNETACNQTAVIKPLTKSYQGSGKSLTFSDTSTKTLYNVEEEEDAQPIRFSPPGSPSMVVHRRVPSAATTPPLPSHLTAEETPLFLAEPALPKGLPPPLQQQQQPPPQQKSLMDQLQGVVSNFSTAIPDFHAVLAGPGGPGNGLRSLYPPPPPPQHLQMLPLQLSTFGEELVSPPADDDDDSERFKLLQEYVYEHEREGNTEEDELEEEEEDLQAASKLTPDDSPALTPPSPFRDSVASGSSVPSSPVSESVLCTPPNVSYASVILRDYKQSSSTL

Q: With N[C@@]1(C(=O)O)CS(=O)(=O)[C@H]2[C@H](C(=O)O)[C@H]21 [LY-404039, reference compound] as the compound, how does the “# protected/# tested” value ([1]; 5 mg/kg s.c.) read?
A: The value was 1/16.

Q: What about the “# protected/# tested” value ([1]; 10 mg/kg s.c.) of the same compound?
A: The value was 5/8.

Q: And the “# protected/# tested” value ([1]; 20 mg/kg s.c.)?
A: Its value is 6/8.

Q: And the “# protected/# tested” value ([1]; 40 mg/kg s.c.)?
A: The value was 8/8.

Q: And the ED50 ([1]; Mus musculus, sc, at TPE, read-out: ED50 (95% CI) 32 mA)?
A: Its ED50 is 10.2 mg/kg.

Q: And the “activity in the 6 Hz 32 mA test” value ([1]; result in words)?
A: The value was “activity in both 6 Hz tests was seen”.

Q: What about the “ED50 (95% CI) 32 mA” value ([1]; s.c., at TPE) of the same compound?
A: Its value is “ED50 (95% CI): 10.9 mg/kg (7.8 to 15.9)”.

Q: What about the “activity when administered alone” value ([2]; 5 mg/kg s.c.) of the same compound?
A: The value was “^bLY404039 (s.c.) 5 mg/kg tested in combination with LEV (i.p.); LY404039 5 mg/kg was not active when administered alone”.

Q: And the responders at 5 mg/kg ([2]; Mus musculus, sc, 0.5 h, 5 mg/kg s.c., 0.5 h, read-out: # protected/# tested)?
A: The responders at 5 mg/kg was 0%.

Q: What about the responders at 10 mg/kg ([2]; Mus musculus, sc, 0.5 h, 10 mg/kg s.c., 0.5 h, read-out: # protected/# tested (converted)) of the same compound?
A: The responders at 10 mg/kg was 37.5%.

Q: What about the responders at 20 mg/kg ([2]; Mus musculus, sc, 0.5 h, 20 mg/kg s.c., 0.5 h, read-out: # protected/# tested (converted)) of the same compound?
A: The responders at 20 mg/kg was 87.5%.

Q: And the responders at 40 mg/kg ([2]; Mus musculus, sc, 0.5 h, 40 mg/kg s.c., 0.5 h, read-out: # protected/# tested (converted))?
A: Its responders at 40 mg/kg is 87.5%.

Q: And the ED50 ([2]; Mus musculus, sc, at TPE, compound alone, read-out: ED50 (95% CI) 44 mA)?
A: Its ED50 is 14.1 mg/kg.

Q: And the “activity in the 6 Hz 44 mA test” value ([2]; result in words)?
A: The value was “activity in both 6 Hz tests was seen”.

Q: And the “pharmacodynamic interaction with LEV in the 6 Hz model” value ([2]; result in words)?
A: The value was “synergy was seen”.

Q: And the “Seizure score (dose) Corneal kindling” value (corneal kindled seizures)?
A: The value was 3.1.

Q: And the “# rotarod motor impairment/# tested” value ([3]; 5 mg/kg s.c., 32 mA group)?
A: The value was 1/16.

Q: And the “# rotarod motor impairment/# tested” value ([3]; 5 mg/kg s.c., 44 mA group)?
A: Its value is 0/16.

Q: What about the “# rotarod motor impairment/# tested” value ([3]; 10 mg/kg s.c., 32 mA group) of the same compound?
A: Its value is 0/8.

Q: And the “# rotarod motor impairment/# tested” value ([3]; 10 mg/kg s.c., 44 mA group)?
A: Its value is 1/8.

Q: And the “# rotarod motor impairment/# tested” value ([3]; 20 mg/kg s.c., 32 mA group)?
A: Its value is 1/8.

Q: And the “# rotarod motor impairment/# tested” value ([3]; 20 mg/kg s.c., 44 mA group)?
A: Its value is 1/8.

Q: What about the “# rotarod motor impairment/# tested” value ([3]; 40 mg/kg s.c., 32 mA group) of the same compound?
A: Its value is 1/8.

Q: And the “# rotarod motor impairment/# tested” value ([3]; 40 mg/kg s.c., 44 mA group)?
A: Its value is 2/8.

Q: And the “mice with impairment out of total” value ([3]; 40 mg/kg s.c., 32 mA and 44 mA groups combined)?
A: Its value is “^a40 mg/kg-3 out of 16 total (32 mA and 44 mA combined) with impairment”.

Q: What about the TD50 at 0.5 h ([3]; mouse, in vivo, sc, rotarod) of the same compound?
A: Its TD50 at 0.5 h is > 40 mg/kg.

Q: What about the “activity at mGlu1a” value (mGlu1a) of the same compound?
A: Its value is “no activity”.

Q: And the “activity at mGlu5a” value (mGlu5a)?
A: Its value is “no activity”.
